From patent US20020156016A1, “Control of cell growth by altering cell membrane potentials” (priority 2001, published 2002)

Tests used:
Assay type in all cases: cell-based, human
Chang cells = assay: Cell PD determination (TMRE fluorescence); details: non-transfected Chang cells, 50 μM muscimol, 48 hours
Procedure: (§1) A Leica DM IRB fluorescence microscope equipped with a PDMI-2 Open perfusion Micro-incubator (Harvard Apparatus, Saint-Laurent, Quebec) was used to measure PDs as described by Loew (Loew, 1998, Cell Biology: A Laboratory Handbook). The incubating temperature was 37° C. Twenty four hour cultured healthy, human hepatocytes and malignant hepatocytes were washed with NB buffer (130 mM NaCl, 5.5 mM KCl, 1.8 mM CaCl2, 1.0 mM MgCl2, 25 mM glucose and 20 mM HEPES buffer adjusted to pH 7.4) three times and then incubated for 10 min with NTB buffer (100 nM tetramethylrhodamine ethyl ester (TMRE) in NB buffer). After obtaining photographs of the fluorescent cells, they were washed with KB buffer (130 mM KCl, 5.5 mM NaCl, 1.8 mM CaCl2, 1.0 mM MgCl2, 25 mM glucose and 20 mM HEPES buffer adjusted to pH 7.4) three times and incubated for 10 min with DTB buffer (100 nM TMRE and 1 μM valinomysin in KB buffer). Photographs were then obtained of the depolarized cells. Fluorescence within the cell was designated intracellular fluorescence (Fin) and fluorescence outside the cell as extracellular fluorescence (Fout). To calculate PDs the Nernst equation was used.
(§2) PD=−(RT/ZF)λn[Fin dFout)/(FoutdFin),
where PD is membrane potential, Z is the charge of the permeable ion, F is Faraday's constant, R is the ideal gas constant and T is the absolute temperature. […]

[1] = tested on: Chang cells transfected with GABAA-β3 receptor cDNA; assay: Cell PD determination (TMRE fluorescence) after muscimol exposure
Procedure: as §1, §2
(§3) where PD is membrane potential, Z is the charge of the permeable ion, F is Faraday's constant, R is the ideal gas constant and T is the absolute temperature.
(§4) To determine whether further hyperpolarization could be achieved in Chang cells transfected with GABAA-β3 receptor cDNA, these cells together with non-transfected Chang cells and Chang cells transfected with vector alone were exposed to 50 μM muscimol, a specific GABAA receptor agonist for 48 hours.

[2] = tested on: Chang cells transfected with vector alone; assay: as above; details: 50 μM muscimol, 48 hours
Procedure: as §1, §2, §3, §4

[3] = tested on: Chang cells transfected with GABAA-β3 receptor cDNA; assay: Proliferative activity after varying concentrations of muscimol; details: muscimol 0-100 μM, FIG. 12
Procedure: (§5) [^3H]-thymidine incorporation was determined as described by Luk (Luk, 1986, Gastroenterology 90: 1261-1267). 5×10^4 cells were seeded into 6-well plates. After two days of culture to allow attachment to plate bottoms, cells were incubated with 1 μCi [^3H]-thymidine for 2 hours at 37° C. [^3H]-thymidine incorporated into cellular DNA was precipitated by the addition of 10% trichloroacetic acid (TCA) for 15 min at room temperature. Cells were rinsed and resolublilized in a 0.3 M NaOH and 1% SDS solution then assayed for radioactivity in a […].
(§6) Bromodeoxyuridine (BrdUrd) incorporation was determined by seeding 5×10^3 cells into 96 well plates. At subconfluence, cells were incubated with serum-free DMEM. Twenty-four hours later, the media was switched to DMEM containing BrdUrd for 2 hours. Incoroporation of BrdUrd was determined using a 5-Bromo-2′-deoxyuridine Labeling and Detection Kit III (Roche Diagnostics, Mississauga, Ontario, Canada) according to the manufacturer's instructions. Absorbance at 450-490 nm was measured using a microplate reader (Molecular Devices, Menlo Park, Calif., USA).
(§7) WST-1 determinations were performed using a commercially available kit (Boehringer Mannheim Canada, Laval, Quebec, Canada). Briefly, 1×10^4 cells were seeded into 96 well plates. After two days of culture one tenth the volume of 4-[3-(4-lodophenyl)-2-(4-nitrophenyl)-2H-5-tetrazolio]-1,3-benzene disulfonate (WST-1, Boehringer Mannheim, Laval, PQ) was added to each well, and the cells incubated with WST-1 for 4 h in 37° C. Asborbance at A405-A650 was determined by a microplate reader (Molecular Devices, Menlo Park, Calif., USA).
(§8) To determine whether the addition of muscimol and/or other GABAA receptor agonists might have therapeutic value in inhibiting the growth of malignant hepatocytes with restored GABAAβ3 receptor mRNA expression, proliferative activity was documented in Chang cells transfected with GABAA-β3 receptor cDNA or vector alone following exposure to varying concentrations of muscimol (0-100 μM).

[4] = tested on: Chang cells transfected with vector alone; assay: as above; details: muscimol 0-100 μM, FIG. 12
Procedure: as §5, §6, §7, §8

In the case of NCc1cc(=O)[nH]o1 [muscimol], the “effect on PDs” value (Chang cells) is reported as “little or no effect”, the “increase of PDs after muscimol” value ([1]; 50 μM muscimol, 48 hours) is reported as “approximately 40%” and the PD post-muscimol ([1]; 50 μM muscimol, 48 hours, pre-muscimol −12.0±0.9) is reported as −16.4±0.8. The “effect on membrane potentials (PDs), in words” value ([1]; Muscimol 50 μM, FIG. 11) was “became more polarized”, the “effect on PDs” value [2] was “little or no effect” and the proliferative activity [3] was “dose dependent decrease”. For the same compound, the proliferative activity ([3]; listed as Muscimol) was “significantly decreased in a dose dependent fashion” and the proliferative activity [4] was “remained essentially unaltered”.
